What all share (format): cell-based, human
For data set [1], the system named is wild-type EGFR. The data set is described as follows: Western immunoblotting of EGFR expression and downstream signaling in wild-type EGFR cell lines. To be noted: A549 and CL1-5 cells, 100 nM. The method, then: A549, CL1-5, H1975, or CL97 was seeded onto 6-well at 3×10^5 cells/well and cultured overnight. Then, cells were separately treated with 100 nM DzControl or DzT790M-1 with lipofectamine 2000 (Invitrogen). The transfected A549 and CL1-5 cells were serum-starved for 24 h and treated with 100 ng/ml of EGF at 37° C. for 15 min. 72 h after transfection, cell were collected for analysis. Cells were washed twice by ice-cold PBS and then total protein was extracted by RIPA buffer with protease inhibitor (Roche). 50 μg of total protein from the supernatants were boiled for 5 min at 95° C. The samples were resolved on 10% SDS-PAGE gel and transferred onto nitrocellulose membranes. EGFR expression and downstream signaling were detected by using primary antibodies specific to human pEGFR(Y1068) (Cell signaling), tEGFR (Santa Cruz), pSTAT3 (Y705) (Cell signaling), tSTAT3 (Cell signaling), pAKT (5473)(Cell signaling), tAKT (Santa Cruz), pERK (T202/Y204) (Cell signaling), tERK (Santa Cruz), and cleaved PARP (Cell signaling) at 1:1000 dilution and β-actin (Santa Cruz) at 1:10000 dilution, respectively. Secondary antibodies against rabbit IgG or mouse IgG was used at 1:5000 dilution. Protein bands on membrane were visualized by exposure to the chemiluminescence substrate.
EGFR belongs to receptor tyrosine kinases. The binding of its extracellular ligands triggers receptor dimerization, tyrosine residues phosphorylation, and downstream signaling activation including signal transducer and activator of transcription 3 (STAT3), Akt, extracellular signal regulated kinases (ERK), and others. To examine the effects of DzT790M on protein expression level of EGFR and its downstream signaling, western immunoblotting was performed on DzT790M transfected cells. A549, CL1-5, H1975, or CL97 was seeded onto 6-well at 3×10^5 cells/well and cultured overnight. Then, cells were separately treated with 100 nM DzControl or DzT790M-1 with lipofectamine 2000 (Invitrogen). The transfected A549 and CL1-5 cells were serum-starved for 24 h and treated with 100 ng/ml of EGF at 37° C. for 15 min. 72 h after transfection, cell were collected for analysis. Cells were washed twice by ice-cold PBS and then total protein was extracted by RIPA buffer with protease inhibitor (Roche). […] Also, activation of downstream STAT3, AKT, and ERK signaling after EGF treatment were not inhibited by DzT790M-1 or DzT790M-2 transfection.
CL1-5 (EGFR wild-type) or H1975 (EGFR T790M) were seeded onto 6-well at 3×10^5 cells/well and cultured overnight. […] The transfected CL1-5 cells were serum-starved for 24 h and treated with 100 ng/ml of EGF at 37° C. for 15 min. 72 h after transfection, cells were collected for western blotting analysis following the above mentioned procedure. […]
For orientation: A western blot detects proteins with antibodies after separation by electrophoresis.

Data set [2] relates to EGFR E746-A750 deletion mRNA. The data set is described as follows: Quantitative RT-PCR of EGFR mRNA in PC9 cells. Particulars: 50, 100, or 150 nM, 48 h, DzControl-treated group as 100% expression. The method, then:
Then, A549 and PC9 cells were separately treated with 50, 100, or 150 nM control DNAzyme or DzEGFR—ΔE746-A750 with Lipofectamine 2000 for 48 h. A549 and H1975 cells were separately treated with 100 nM control DNAzyme or different DzL858Rs with Lipofectamine 2000 for 48 h. RNA purification was done by conventional TRIzol® (Invitrogen Corp., Grand Island, N.Y.) method following manufacturer's protocol. Quantitative RT-PCR was performed on 40 ng total mRNA with the LightCycler 480 system (Roche). The PCR mix contained 5 μl of 2× ProbeMaster mix, 100 nM of UPL probe (Roche Diagnostics, Penzberg, Germany) and 200 nM of primer (each) in a total volume of 10 μl. The PCR conditions were 95° C. for 10 min, followed by 60 cycles at 95° C. for 10 s, 60° C. for 10 s, and 72° C. for 2 s. Data were analyzed by LC480 software (Roche Diagnostics). The relative amount of EGFR mRNA was normalized to ACTB mRNA. The sequences of PCR primers are as follows: […]

Data set [3] has as its system PC9 cells (E746-A750 deletion EGFR). Put plainly: Cell proliferation (MTT). To be noted: 48 h, DzControl-treated group as 0% death. The method, then:
(§1) Then, cells were separately treated with 50, 100, or 150 nM control DNAzyme or DzEGFR—ΔE746-A750 with Lipofectamine 2000 for 48 h.

For data set [4], the system named is A549 cells (wild type EGFR). The data set is described as follows: Cell proliferation (MTT). Particulars: 150 nM of DNAzyme, 48 h. The method, then:
as §1

The subject of data set [5] is wild-type EGFR mRNA. Put plainly: Quantitative real-time PCR of EGFR mRNA knockdown. Particulars: A549 cells; 50, 100, or 150 nM; 48 h. The method, then:
A549, CL1-5, H1975, or CL97 was seeded onto 6-well at 3×10^5 cells/well and cultured overnight. Then, cells were separately treated with 100 nM DzControl or DzT790M-1 with lipofectamine 2000 (Invitrogen). After 48 h, total mRNA were extracted from DNAzyme-treated cells by Mestrisol following manufacturer's protocol. cDNA were synthesized by using RT III kit with random hexamers as primers (Invitrogen). The PCR primers were synthesized by Genomics BioSci & Tech (Taipei, Taiwan). The sequences of PCR primers are listed as follows: […]
The parameters for PCR were: 95° C. for 10 min, then 25 cycles of PCR at 95° C. for 30 s, 60° C. for 30 s, and 72° C. for 60 s. 3% agarose gels were used for electrophoresis of PCR products. The intensity of bands were quantified by Image J. Quantitative RT-PCR was performed on 40 ng total mRNA with the LightCycler 480 system (Roche). The PCR mix contained 5 μl of 2× Probe Master mix, 100 nM of UPL probe (Roche Diagnostics, Penzberg, Germany), 200 nM of forward primer and reverse primer, 0.1 ul RNAseout (Invitrogen), and 0.025 ul RTIII enzyme (Invitrogen) in a total volume of 10 μl. PCR parameters were as follows: 50° C. for 40 min, then 45 cycles of PCR at 95° C. for 10 s, 60° C. for 10 s, and 72° C. for 2 s. Data were analyzed by LC480 software (Roche Diagnostics, Penzberg, Germany). The relative amount of EGFR mRNA was normalized to ACTB mRNA. The sequences of PCR primers are as follows: […]
To examine the allele selectivity of DzT790M-1, EGFR mRNA knockdown efficiency was detected in two cell lines harboring wild-type EGFR (A549, CL1-5) and two cell lines containing EGFR T790M mutation (H1975, CL97). A549, CL1-5, H1975, or CL97 was seeded onto 6-well at 3×10^5 cells/well and cultured overnight. […]
Then, A549 and PC9 cells were separately treated with 50, 100, or 150 nM control DNAzyme or DzEGFR—ΔE746-A750 with Lipofectamine 2000 for 48 h. […] Quantitative RT-PCR was performed on 40 ng total mRNA with the LightCycler 480 system (Roche). […] Data were analyzed by LC480 software (Roche Diagnostics). […]
On the technique in general: Quantitative PCR measures a nucleic acid by following its amplification.

The subject of data set [6] is CL97 cells. Put plainly: Apoptosis assay (annexin V and PI, flow cytometry). To be noted: 100 nM, 48 h. The method, then:
(§2) H1975 or CL97 was seeded onto 10-cm dish and cultured overnight. Then, cells were separately treated with 100 nM DzControl or DzT790M-1 with lipofectamine 2000 (Invitrogen). After 48 h, cells were collected, double stained by annexin V and PI, and analyzed by flow cytometry following the protocol of Dead cell apoptosis kit from manufacturer (Invitrogen).

Data set [7] relates to H1975 cells. The data set is described as follows: Apoptosis assay (annexin V and PI, flow cytometry). Particulars: 100 nM, 48 h. The method, then:
as §2
(In flow cytometry, cells or beads pass a laser one at a time.)

Strand notation (5' to 3'): a small letter for the sugar, then the base; units joined by * are phosphorothioate-linked, units joined directly phosphodiester-linked; [ ] holds rarer units or linkages, { } end groups; capitals alone tell only the bases. d = 2'-deoxy (DNA)

Consider “DzT790M-2: 10-23 DNAzyme against EGFR T790M mRNA, arms 8/8: GAGCTGCAGGCTAGCTACAACGAGATGAGCT (DNA, backbone and methylation of C not given here)”, for which, in data set [1] (100 ng/ml EGF 15 min), the “activation of downstream STAT3, AKT, and ERK signaling after EGF treatment” value is “not inhibited”. In addition, in data set [1] (72 h after transfection), the “protein level of EGFR compared to DzControl group” value is on record as “did not decreased”.

Turning to “DzEGFR—ΔE746-A750: DNAzyme against EGFR E746-A750 deletion: GGAGATGTGTCAGCTGACTCGAATGATAGCGAC (DNA, backbone and methylation of C not given here)”, in data set [2], the “mutant EGFR expression” value is listed as “suppressed”. Moreover, in data set [3], the “death of PC9 cells” value was found to be 60%. Moreover, in data set [4], the “viability of A549 cells affected” value was found to be 20%. Also, the “binding and action on wild type EGFR” value in data set [5] is “did not bind and act”.

Consider “DzControl: control DNAzyme not complementary to any mRNA in human cells: CATCGGAGGCTAGCTACAACGAGACAGCTG (DNA dC*dAdTdCdGdGdAdGdGdCdTdAdGdCdTdAdCdAdAdCdGdAdGdAdCdAdGdCdT*dG; further chemistry not fully specified) [reference compound]”, for which, in data set [6], the “percentage of apoptotic cells in whole cell population” value came out at 5.2% and the “percentage of dead cells in whole cell population” value amounted to 17%. In addition, in data set [7], the apoptotic cells came out at 3.6%; the “dead cells (annexin V and PI double positive)” value turned out to be 12.4%.

These data come from US9856480B2, “Dnazyme for silencing the expression of EGFR” (DCB-USA LLC, priority 2013, dated 2018).
